Assay results taken from US20230241030A1, “MACROGOL 15 HYDROXYSTEARATE FORMULATIONS” (Allergan, Inc., priority 2011, published 2023).
Values after ≈ are worked out from the molar mass of the structure shown. Like-named read-outs stand apart in the source and are kept apart here. One block for each compound: values may come before it.

How the values were obtained:
Assay type in all cases: physicochemical
[1] = Solubility in formulation vehicles with different solubilizers; details: for Solubility in vehicle containing Solutol 15 HS compared to polyoxyethylated surfactants: comparison in words; for solubility at 8 weeks: read-out: Solubility (mg/ml) measured after 8 weeks
Text: Table 1 summarizes solubility of Cmpd 1 in vehicles with 4 different solubilizers over a range of temperatures.

[2] = Stability of Cmpd 1 in formulations, impurities by percent area LC; details: macrogol 15 hydroxystearate vs PS80 formulation of Table 3; 25° C. and 40° C. storage; FIGS. 2A-D
Protocol: FIGS. 2A-D: Stability results for Cmpd 1 in formulations containing either polysorbate 80 (PS80) or macrogol 15 hydroxystearate (Sol-2) as solubilizer as shown in Table 3. See Examples. […] Impurity amounts were calculated by percent area by liquid chromatography (LC). FIG. 2A: 25° C. storage, total impurities. FIG. 2B: 25° C. storage, major degradation product. FIG. 2C: 40° C. storage, total impurities. FIG. 2D: 40° C. storage, major degradation product. Legend: as in FIG. 1.

[3] = Stability of Cmpd 2 in formulations, percent remaining by LC
Protocol: FIG. 1. See Examples. Samples were stored at 25° C. Axes: x-axis (time, months); y-axis (stability of Cmpd 2 as measured by percent remaining by liquid chromatography, LC). Legend: macrogol 15 hydroxystearate (box); polysorbate 80 (diamond).
See Examples. […] Axes: x-axis (time, months); y-axis (stability of Cmpd 2 as measured by percent remaining by liquid chromatography, LC). Legend Formulation PSI, storage 40° C./20% RH, % remaining by LC (Diamond); Formulation Sol1, storage 40° C./20% RH, % remaining by LC (Square); Formulation PSI, storage 25° C./40% RH, % remaining by LC (Triangle); Formulation Sol1, storage 25° C./40% RH, % remaining by LC (cross); Formulation PSI, storage 5° C., % remaining by LC (Asterix); Formulation Sol1, storage 5° C., % remaining by LC (circle).
Axes: x-axis (time, months); y-axis (stability of Cmpd 2 as measured by percent remaining by liquid chromatography, LC). Legend Formulation #2, storage 5°, % remaining by LC (Diamond); Formulation #2, storage 25° C./40% RH, % remaining by LC (Square); Formulation #2, storage 30° C./60% RH, % remaining by LC (Triangle); Formulation #5, storage 5° C., % remaining by LC (cross); Formulation #5, storage 25° C./40% RH, % remaining by LC (Asterix); Formulation #5, storage 30° C./60% RH, % remaining by LC (circle).

[4] = Cmpd 4 solubility in Solutol HS 15 vehicles

solubility at 8 weeks ([1]; formulation vehicle with 1% POE 40 Stearate, aqueous with cosolvent or surfactant or cyclodextrin, vehicle with 1% POE 40 Stearate, 5 °C): 1.27 mg/mL (≈ 2680 µM)
solubility at 8 weeks ([1]; formulation vehicle with 1% POE 40 Stearate, aqueous with cosolvent or surfactant or cyclodextrin, vehicle with 1% POE 40 Stearate, 25 °C): 1.21 mg/mL (≈ 2560 µM)
solubility at 8 weeks ([1]; formulation vehicle with 1% POE 40 Stearate, aqueous with cosolvent or surfactant or cyclodextrin, vehicle with 1% POE 40 Stearate, 40 °C): 1.15 mg/mL (≈ 2430 µM)
solubility at 8 weeks ([1]; formulation vehicle with 1% Polysorbate 20, aqueous with cosolvent or surfactant or cyclodextrin, vehicle with 1% Polysorbate 20, 5 °C): 1.24 mg/mL (≈ 2620 µM)
solubility at 8 weeks ([1]; formulation vehicle with 1% Polysorbate 20, aqueous with cosolvent or surfactant or cyclodextrin, vehicle with 1% Polysorbate 20, 25 °C): 1.18 mg/mL (≈ 2490 µM)
solubility at 8 weeks ([1]; formulation vehicle with 1% Polysorbate 20, aqueous with cosolvent or surfactant or cyclodextrin, vehicle with 1% Polysorbate 20, 40 °C): 1.05 mg/mL (≈ 2220 µM)
solubility at 8 weeks ([1]; formulation vehicle with 1% Polysorbate 80, aqueous with cosolvent or surfactant or cyclodextrin, vehicle with 1% Polysorbate 80, 5 °C): 1.68 mg/mL (≈ 3540 µM)
solubility at 8 weeks ([1]; formulation vehicle with 1% Polysorbate 80, aqueous with cosolvent or surfactant or cyclodextrin, vehicle with 1% Polysorbate 80, 25 °C): 1.52 mg/mL (≈ 3220 µM)
solubility at 8 weeks ([1]; formulation vehicle with 1% Polysorbate 80, aqueous with cosolvent or surfactant or cyclodextrin, vehicle with 1% Polysorbate 80, 40 °C): 1.46 mg/mL (≈ 3080 µM)
solubility at 8 weeks ([1]; formulation vehicle with 1% Solutol HS 15, aqueous with cosolvent or surfactant or cyclodextrin, vehicle with 1% Solutol HS 15, 5 °C): 1.5 mg/mL (≈ 3170 µM)
solubility at 8 weeks ([1]; formulation vehicle with 1% Solutol HS 15, aqueous with cosolvent or surfactant or cyclodextrin, vehicle with 1% Solutol HS 15, 25 °C): 1.32 mg/mL (≈ 2790 µM)
solubility at 8 weeks ([1]; formulation vehicle with 1% Solutol HS 15, aqueous with cosolvent or surfactant or cyclodextrin, vehicle with 1% Solutol HS 15, 40 °C): 1.24 mg/mL (≈ 2610 µM)
SMILES: CCCCC[C@H](O)c1ccc(N2C(=O)CC[C@@H]2COCc2ccc(C(=O)OC(C)C)s2)cc1 [Cmpd 1, isopropyl 5-((((R)-1-(4-((S)-1-hydroxyhexyl)phenyl)-5-oxopyrrolidin-2-yl)methoxy)methyl)thiophene-2-carboxylate]
Solubility in vehicle containing Solutol 15 HS compared to polyoxyethylated surfactants [1]: higher than that containing POE40 stearate or polysorbate 20, but slightly lower than that containing Polysorbate 80
Oxidative degradation (total impurities, major degradation product) [2]: prevent oxidative degradation seen in PS80 containing formulations

SMILES: CCCCC[C@H](O)c1ccc(N2C(=O)CC[C@@H]2CCCc2ccc(C(=O)OC(C)C)s2)cc1 [Cmpd 2, isopropyl 5-(3-((S)-1-(4-((S)-1-hydroxyhexyl)phenyl)-5-oxopyrrolidin-2-yl)propyl)thiophene-2-carboxylate]
Solubility in vehicle containing Solutol 15 HS compared to polyoxyethylated surfactants [1]: comparable or better solubility
Degradation (percent remaining by LC) ([3]; macrogol 15 hydroxystearate (#2) vs PS80 (#5) formulation of Table 8, 5° C., 25° C./40% RH, 30° C./60% RH, FIG. 4): prevent degradation seen in PS80 containing formulations at all storage conditions
Degradation (percent remaining by LC) ([3]; macrogol 15 hydroxystearate vs PS80 formulation of Table 7, 40° C./20% RH storage, FIG. 3): prevent degradation seen in PS80 containing formulations

Cmpd 4 Solubility (% w/w) <mixing overnights (>24 hr) at ambient room temperature> ([4]; 0.1% Solutol HS 15, adjusted to pH 5.5, final pH 5.9 post-filtration): 0.07 % w/w
Cmpd 4 Solubility (% w/w) <mixing overnights (>24 hr) at ambient room temperature> ([4]; 0.1% Solutol HS 15, adjusted to pH 6.5, final pH 6.7 post-filtration): 0.02 % w/w
Cmpd 4 Solubility (% w/w) <mixing overnights (>24 hr) at ambient room temperature> ([4]; 0.5% Solutol HS 15, adjusted to pH 5.5, final pH 6.1 post-filtration): 0.11 % w/w
Cmpd 4 Solubility (% w/w) <mixing overnights (>24 hr) at ambient room temperature> ([4]; 0.5% Solutol HS 15, adjusted to pH 6.5, final pH 6.8 post-filtration): 0.06 % w/w
Cmpd 4 Solubility (% w/w) <mixing overnights (>24 hr) at ambient room temperature> ([4]; 1.0% Solutol HS 15, adjusted to pH 5.5, final pH 6.1 post-filtration): 0.16 % w/w
Cmpd 4 Solubility (% w/w) <mixing overnights (>24 hr) at ambient room temperature> ([4]; 1.0% Solutol HS 15, adjusted to pH 6.5, final pH 6.8 post-filtration): 0.10 % w/w
SMILES: Cc1c(COC(=O)C(C)(C)C)cccc1[C@H](C)c1c[nH]cn1 [Cmpd 4, 3-[(1S)-1-(1H-imidazol-4-yl)ethyl]-2-methylbenzyl pivalate]
